Legend:
[1] = human, in vivo, iv; cited from earlier work
BuChE L^286 Q = assay type: biochemical, human
BuChE F^329 R = assay type: biochemical, human
[2] = target: diisopropylphosphoryl-Chimera; assay type: biochemical, human
BuChE D^70 G + S^425 P = assay type: biochemical, human
BuChE L^286 R = assay type: biochemical, human
BuChE S^425 P = assay type: biochemical, human
[3] = target: diisopropylphosphoryl-BuChE (Homo sapiens, UniProt P06276); assay: biochemical
BuChE F^329 C = assay type: biochemical, human
[4] = target: purified diethylphosphoryl-BuChE; conditions: cited from earlier work
BuChE L^286 K = BuChE L^286 K (Homo sapiens, UniProt P06276, L314K); assay: biochemical; assay type: biochemical
Chain of BuChE L^286 K (P06276 29-602 L314K limits assumed): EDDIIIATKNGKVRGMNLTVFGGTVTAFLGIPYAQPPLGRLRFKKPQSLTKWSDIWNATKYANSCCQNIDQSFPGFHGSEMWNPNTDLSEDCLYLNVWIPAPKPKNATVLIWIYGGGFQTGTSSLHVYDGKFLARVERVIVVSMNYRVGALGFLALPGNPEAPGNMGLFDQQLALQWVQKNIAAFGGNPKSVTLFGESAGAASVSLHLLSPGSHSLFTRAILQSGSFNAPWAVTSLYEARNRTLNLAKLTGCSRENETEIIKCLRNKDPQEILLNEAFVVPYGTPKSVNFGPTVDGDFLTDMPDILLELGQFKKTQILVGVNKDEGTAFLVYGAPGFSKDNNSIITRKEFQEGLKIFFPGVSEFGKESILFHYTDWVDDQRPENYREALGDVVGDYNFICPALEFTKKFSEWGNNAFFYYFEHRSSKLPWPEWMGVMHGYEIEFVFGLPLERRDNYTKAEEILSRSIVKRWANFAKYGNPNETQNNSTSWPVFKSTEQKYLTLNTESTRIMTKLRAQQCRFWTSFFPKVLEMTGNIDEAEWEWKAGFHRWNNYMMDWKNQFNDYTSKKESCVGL

BuChE F^329 D = assay type: biochemical, human
[5] = target: diisopropylphosphoryl-AChE (E6) (Homo sapiens, UniProt P22303)
Chain of diisopropylphosphoryl-AChE (E6) (P22303 32-614): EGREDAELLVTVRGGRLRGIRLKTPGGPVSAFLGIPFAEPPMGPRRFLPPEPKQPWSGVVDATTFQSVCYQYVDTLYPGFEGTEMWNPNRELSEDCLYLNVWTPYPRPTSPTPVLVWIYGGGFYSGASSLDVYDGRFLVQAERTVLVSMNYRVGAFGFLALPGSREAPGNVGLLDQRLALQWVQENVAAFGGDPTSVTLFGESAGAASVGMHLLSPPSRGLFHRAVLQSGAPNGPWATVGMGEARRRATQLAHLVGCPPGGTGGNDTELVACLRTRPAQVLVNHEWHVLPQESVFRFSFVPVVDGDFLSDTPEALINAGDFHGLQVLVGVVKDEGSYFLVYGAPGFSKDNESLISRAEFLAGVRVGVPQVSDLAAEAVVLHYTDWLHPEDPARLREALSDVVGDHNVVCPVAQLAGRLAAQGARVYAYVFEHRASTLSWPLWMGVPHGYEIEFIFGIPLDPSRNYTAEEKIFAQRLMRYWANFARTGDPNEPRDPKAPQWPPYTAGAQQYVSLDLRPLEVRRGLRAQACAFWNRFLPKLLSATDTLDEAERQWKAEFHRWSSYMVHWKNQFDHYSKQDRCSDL

BuChE D^70 G + Y^114 H = assay type: biochemical, human
[6] = target: diisopropylphosphoryl-AChE (E5) (Homo sapiens, UniProt P22303)
Chain of diisopropylphosphoryl-AChE (E5) (P22303-4 with tags, fused parts or gaps limits assumed): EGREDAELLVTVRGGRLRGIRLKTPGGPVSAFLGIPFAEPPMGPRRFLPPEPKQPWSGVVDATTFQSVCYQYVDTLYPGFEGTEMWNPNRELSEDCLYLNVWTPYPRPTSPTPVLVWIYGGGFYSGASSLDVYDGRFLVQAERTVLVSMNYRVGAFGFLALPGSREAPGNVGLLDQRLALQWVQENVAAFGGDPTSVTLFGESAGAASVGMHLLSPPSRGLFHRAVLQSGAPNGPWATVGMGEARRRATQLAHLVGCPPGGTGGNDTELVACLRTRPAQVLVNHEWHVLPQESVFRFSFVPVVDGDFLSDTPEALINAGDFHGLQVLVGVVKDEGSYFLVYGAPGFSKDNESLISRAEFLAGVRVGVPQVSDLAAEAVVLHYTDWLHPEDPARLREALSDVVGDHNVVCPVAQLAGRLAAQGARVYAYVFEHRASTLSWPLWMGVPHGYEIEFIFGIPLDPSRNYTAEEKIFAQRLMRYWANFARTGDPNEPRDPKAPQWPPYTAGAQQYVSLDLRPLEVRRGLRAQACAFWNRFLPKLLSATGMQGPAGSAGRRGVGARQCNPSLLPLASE

BuChE L^286 D = assay type: biochemical, human
[7] = system: BuChE D^70 G + Y^114 H + S^425 P; assay type: biochemical, human
BuChE F^329 Q = assay type: biochemical, human
BuChE D^70 G = assay type: biochemical, human

Chain of diisopropylphosphoryl-BuChE (P06276 29-602): as the sequence (P06276 29-602 L314K limits assumed) above, with K286L counted along it

## C[n+]1ccccc1C=NO [PAM, Pyridine-2-aldoxime methiodide]
[1]
  Cmax: ≤ 40 µM
BuChE L^286 Q
  k'r × 10^3: 120 ± 20
BuChE F^329 R
  k'r × 10^3: 43
[2]
  Kd: 340 ± 130 µM
  Kr × 10^3: 48 ± 20
  k'r × 10^3: 40 ± 18
  reactivation rate constant lower than that of native BuChE: 5 fold
BuChE D^70 G + S^425 P
  k'r × 10^3: 11
BuChE L^286 R
  k'r × 10^3: 6 ± 3
BuChE S^425 P
  k'r × 10^3: 134 ± 8
[3]
  Kd: 300 µM
  Kr × 10^3: 220 ± 60
  k'r × 10^3: 150 ± 30
  pseudo-first order rate constant for reactivation of DFP-inhibited BuChE, higher than AChE: 25 fold
BuChE F^329 C
  k'r × 10^3: 14 ± 2
[4]
  Kd: 200 µM
BuChE L^286 K
  Kd: > 5000 µM
  Kr × 10^3: 35 ± 27
  k'r × 10^3: 4 ± 1
  reduction in the pseudo-first order rate constant for reactivation: 40 fold
BuChE F^329 D
  k'r × 10^3: 8 ± 1
[5]
  Kr × 10^3: 7 ± 3
  k'r × 10^3: 6 ± 2
BuChE D^70 G + Y^114 H
  k'r × 10^3: 12 ± 5
[6]
  Kr × 10^3: 10 ± 5
  k'r × 10^3: 8 ± 3
BuChE L^286 D
  k'r × 10^3: 120 ± 30
[7]
  k'r × 10^3: 4 ± 1
BuChE F^329 Q
  k'r × 10^3: 44 ± 15
BuChE D^70 G
  k'r × 10^3: 32 ± 4
  reactivation rate lower than wild-type BuChE: 5 fold

Source: US5807671A (priority 1995, dated 1998)
